We go through 3 compounds from US20240344095A1, “PROCESS FOR THE PRODUCTION OF MICROBIAL CELLULOSE USING WASTE TEXTILES” (Sanko Tekstil Isletmeleri San. Ve Tic. A.S., priority 2023, published 2024).

For this test, the system named is Gluconacetobacter hansenii ATCC 53582. Nature of the test: Effect of additives in waste textile glucose medium on bacterial cellulose production. The class given is cell-based. Conditions: 14 days. How it is done: The bacterial strain Gluconacetobacter hansenii ATCC 53582 was grown in 500 mL of waste textile glucose medium at an incubation temperature of 28° C.-30° C., for 14 days, in a close-lid plastic box. Different experiments were carried out to test the effect of the addition of different additives (TiBALDH, Glycerol, Ascorbic Acid) in different concentration on the production of bacterial cellulose. At the end of the incubation, the amount of the wet bacterial cellulose obtained was determined. Comparisons of wet bacterial amount change (%) in Table 2, 3, 4, and 5 are based on data in Table 1.

The mark [1] stands for this setting: additives marked + at 0.5% Vitamin C, 1% Glycerol, 0.25% TiBALDH in WTG medium.

As to `OCC(O)CO` [Glycerol, glycerol], the “Wet BC amount change” value by setting is: (Glycerol Concentration 0.5 % in WTG medium, compared with Table 1) 10.93%; (Glycerol Concentration 1.0 % in WTG medium, compared with Table 1) 19.74%; (Glycerol Concentration 2.0 % in WTG medium, compared with Table 1) 10.15%; under setting [1], 19.74%.

In the case of `O=C1O[C@H]([C@@H](O)CO)C(O)=C1O` [Vitamin C, ascorbic acid], the “Wet BC amount change” value was determined as 6.75% (Vitamin C Concentration 0.25 % in WTG medium, compared with Table 1); 9.25% (Vitamin C Concentration 0.50 % in WTG medium, compared with Table 1); 8.13% (Vitamin C Concentration 1.00 % in WTG medium, compared with Table 1); 6.95% (Vitamin C Concentration 2.00 % in WTG medium, compared with Table 1); 5.57% (Vitamin C Concentration 3.00 % in WTG medium, compared with Table 1); 2.96% (Vitamin C Concentration 4.00 % in WTG medium, compared with Table 1). For the same compound, the “Wet BC amount change” value under setting [1] came to 9.25%.

Consider “Titanium (IV) bis-(ammonium lactato) dihydroxide [TiBALDH]”, for which the “Wet BC amount change” value is on record as 7.04% (TiBALDH Concentration 0.0050 % in WTG medium, compared with Table 1); 18.10% (TiBALDH Concentration 0.0250 % in WTG medium, compared with Table 1); 24.13% (TiBALDH Concentration 0.0500 % in WTG medium, compared with Table 1); 55.30% (TiBALDH Concentration 0.2500 % in WTG medium, compared with Table 1); 17.10% (TiBALDH Concentration 0.5000 % in WTG medium, compared with Table 1); −26.79% (TiBALDH Concentration 1.0000 % in WTG medium, compared with Table 1). Under setting [1], the “Wet BC amount change” value came to 55.30%.
